How the values were obtained:
mouse DGAT1 = target: T1, mouse DGAT1 (Mus musculus, UniProt Q9Z2A7); assay: DGAT1 inhibitory effect test (microsome fraction, [14C]-oleoyl-CoA, triglyceride radioactivity by TLC); type: biochemical; conditions: 0.5 h; concentration of the test compound 0.1 μg/ml; mouse DGAT1 microsomes, 23° C., 30 minutes; read-out: Inhibitory ratio
T1 construct: made in house; host or cells: insect cells (High Five, Sf9, Sf21, etc.), baculovirus expression system (Invitrogen)
T1 sequence (Q9Z2A7 1-498): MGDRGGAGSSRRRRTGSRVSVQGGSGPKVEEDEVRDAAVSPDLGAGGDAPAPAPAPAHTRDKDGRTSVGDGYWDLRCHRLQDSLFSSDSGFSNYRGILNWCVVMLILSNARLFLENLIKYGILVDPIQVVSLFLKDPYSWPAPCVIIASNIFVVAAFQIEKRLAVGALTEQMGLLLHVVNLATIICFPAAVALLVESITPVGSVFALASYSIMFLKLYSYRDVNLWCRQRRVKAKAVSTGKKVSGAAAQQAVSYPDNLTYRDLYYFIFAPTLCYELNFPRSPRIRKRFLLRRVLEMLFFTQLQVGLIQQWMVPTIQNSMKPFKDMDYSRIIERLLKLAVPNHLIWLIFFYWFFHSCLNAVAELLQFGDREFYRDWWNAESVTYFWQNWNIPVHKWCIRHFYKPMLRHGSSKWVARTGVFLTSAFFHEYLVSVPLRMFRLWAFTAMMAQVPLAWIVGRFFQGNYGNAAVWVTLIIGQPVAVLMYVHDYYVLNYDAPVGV
Protocol: The cDNA which encodes mouse DGAT1 was cloned from a mouse cDNA library by polymerase chain reaction (hereinafter referred to as “PCR”) and introduced into an insect cell virus vector (baculovirus expression system, Invitrogen). After insect cells (High Five, Sf9, Sf21, etc., Invitrogen) were infected with the virus, the cells were collected in buffer A [0.1M sucrose, 50 mM KCl, 40 mM potassium phosphate (pH 7.4), 30 mM EDTA, 1% Protease inhibitor cocktail (SIGMA, P-8340)] and crushed with a Polytron homogenizer. The supernatant obtained by subjecting the homogenate to low speed centrifugal processing (10,000 ×g, 30 minutes) was further subjected to higher-speed centrifugal processing (100,000 ×g, 60 minutes) and the precipitate was resuspended in buffer A as the microsome fraction and used as DGAT1 enzyme. The DGAT1 enzyme was divided into small volumes and stored at −80° C.
(2) DGAT1 Inhibitory Effect Test
The reaction liquid of the following composition [175 mM Tris-HCl (pH 8.0), 8 mM MgCl2, 1 mg/ml BSA, 0.5 mM 1,2-dioleoyl-sn-glycerol (EtOH solution of 10-fold concentration, 10% added), 30 μM[14C]-oleoyl-CoA (about 50 mCi/mmol), 0.5% triton X-100, DGAT1 enzyme (10 μg) obtained in Test Example 1(1), test compound or vehicle (DMSO/MeOH, 7:3 solution, 5% added), total volume 50 μl] was incubated at room temperature (23° C.) for 30 minutes. A reaction terminating solution (70 μl) consisting of isopropanol/1-heptane/water (80:20:2, v/v/v) was added to the reaction solution and stirred, and subsequently stirred with water (30 μl) and 1-heptane (100 μl). The 1-heptane layer (50 μl) was spotted onto a TLC plate and developed with a developing solvent consisting of 1-hexane/diethyl ether/acetic acid (85:15:1, v/v/v). Radioactivity of triglyceride fraction was quantified by BAS2000 bio image analyzer (Fuji Film) and the inhibitory effect of the test compounds was calculated by the following formula through comparison with control. Here, radioactivity at no reaction (0 minutes incubation) was assumed as background. Inhibitory ratio=100−[(Radioactivity when test compound was added)−(Background)]/[(Radioactivity by control)−(Background)]×100

Row | inhibition at 0.1 µg/mL (mouse DGAT1) | melting point | Compound
1 | ≥ 50% | 240 to 241 °C | COc1ccc(F)cc1NC(=O)Nc1ccc(N2CCN(C(=O)Nc3c(C)cccc3Cl)CC2)cc1 [Example 98, 4-{4-[3-(5-fluoro-2-methoxy-phenyl)-ureido]-phenyl}-piperazine-1-carboxylic acid (2-chloro-6-methyl-phenyl)-amide]
2 | ≥ 50% | 216 to 217 °C | CCCc1ccccc1NC(=O)Nc1ccc(N2CCN(C(=O)Nc3c(C)cccc3Cl)CC2)cc1 [Example 130, 4-{4-[3-(2-propyl-phenyl)-ureido]-phenyl}-piperazine-1-carboxylic acid (2-chloro-6-methyl-phenyl)-amide]
3 | ≥ 50% | 186 to 187 °C | COc1ccc(C)cc1NC(=O)Nc1ccc(N2CCN(C(=O)Nc3ccc(C)cc3Cl)CC2)cc1 [Example 76, 4-{4-[3-(2-methoxy-5-methyl-phenyl)-ureido]-phenyl}-piperazine-1-carboxylic acid (2-chloro-4-methyl-phenyl)-amide]
4 | ≥ 50% | 219 to 220 °C | O=C(Nc1ccc(N2CCN(C(=O)Nc3ccc(OCCO)cc3C(F)(F)F)CC2)cc1)Nc1ccccc1F [Example 211, 4-{4-[3-(2-fluoro-phenyl)-ureido]-phenyl}-piperazine-1-carboxylic acid [4-(2-hydroxy-ethoxy)-2-trifluoromethyl-phenyl]-amide]
5 | ≥ 50% | 198 to 200 °C | COc1ccc(C)cc1NC(=O)Nc1ccc(N2CCN(C(=O)Nc3c(C)cccc3OC)CC2)nc1 [Example 186, 4-{5-[3-(2-methoxy-5-methyl-phenyl)-ureido]-pyridin-2-yl}-piperazine-1-carboxylic acid (2-methoxy-6-methyl-phenyl)-amide]
6 | ≥ 50% | 239 to 241 °C | CCc1ccc(NC(=O)Nc2ccc(N3CCN(C(=O)Nc4c(C)cccc4Cl)CC3)cc2)cc1 [Example 160, 4-{4-[3-(4-ethyl-phenyl)-ureido]-phenyl}-piperazine-1-carboxylic acid (2-chloro-6-methyl-phenyl)-amide]
7 | ≥ 50% | 212 to 214 °C | COc1ccc(NC(=O)N2CCN(c3ccc(NC(=O)Nc4cc(F)ccc4OC)cn3)CC2)c(C)c1 [Example 153, 4-{5-[3-(5-fluoro-2-methoxy-phenyl)-ureido]-pyridin-2-yl}-piperazine-1-carboxylic acid (4-methoxy-2-methyl-phenyl)-amide]
8 | ≥ 50% | 219 to 220 °C | CCOc1ccc(C)cc1NC(=O)Nc1ccc(N2CCN(C(=O)Nc3ccccc3C(F)(F)F)CC2)cc1 [Example 83, 4-{4-[3-(2-ethoxy-5-methyl-phenyl)-ureido]-phenyl}-piperazine-1-carboxylic acid (2-trifluoromethyl-phenyl)-amide]
9 | ≥ 50% | > 240 °C (dec.) | COc1ccc(C)cc1NC(=O)Nc1ccc(N2CCCN(C(=O)Nc3c(C)cccc3Cl)CC2)cc1 [Example 200, 4-{4-[3-(2-methoxy-5-methyl-phenyl)-ureido]-phenyl}-perhydro-1,4-diazepine-1-carboxylic acid (2-chloro-6-methyl-phenyl)-amide]
10 | ≥ 50% | 169 to 171 °C | CCOc1ccccc1NC(=O)Nc1ccc(N2CCN(C(=O)Nc3c(C)cccc3OC)CC2)cc1 [Example 183, 4-{4-[3-(2-ethoxy-phenyl)-ureido]-phenyl}-piperazine-1-carboxylic acid (2-methoxy-6-methyl-phenyl)-amide]
11 | ≥ 50% | 212 to 214 °C | COc1ccc(C)cc1NC(=O)Nc1ccc(N2CCN(C(=O)Nc3c(C)cccc3C)CC2)cc1 [Example 62, 4-{4-[3-(2-methoxy-5-methyl-phenyl)-ureido]-phenyl}-piperazine-1-carboxylic acid (2,6-dimethyl-phenyl)-amide]
12 | ≥ 50% | 198 to 200 °C | CCOc1ccc(C)cc1NC(=O)Nc1ccc(N2CCN(C(=O)Nc3ncccc3C)CC2)nc1 [Example 307, 4-{5-[3-(2-ethoxy-5-methyl-phenyl)-ureido]-pyridin-2-yl}-piperazine-1-carboxylic acid (3-methyl-pyridin-2-yl)-amide]
13 | ≥ 50% | 234 to 236 °C | COc1ccc(C)cc1NC(=O)Nc1ccc(C2CCN(C(=O)Nc3c(C)cccc3Cl)CC2)cc1 [Example 228, 4-{4-[3-(2-methoxy-5-methyl-phenyl)-ureido]-phenyl}-piperidine-1-carboxylic acid (2-chloro-6-methyl-phenyl)-amide]
14 | ≥ 50% | 118 to 120 °C | COc1ccc(C)cc1NC(=O)Nc1ccc(N2CCN(C(=O)Nc3ccc(OCCO)cc3Cl)CC2)c(F)c1 [Example 253, 4-{2-fluoro-4-[3-(2-methoxy-5-methyl-phenyl)-ureido]-phenyl}-piperazine-1-carboxylic acid [2-chloro-4-(2-hydroxy-ethoxy)-phenyl]-amide]
15 | ≥ 50% | 130 to 132 °C | CC(C)(C)c1csc(NC(=O)Nc2ccc(N3CCN(C(=O)Nc4ccc(OCCO)cc4C(F)(F)F)CC3)cc2)n1 [Example 224, 4-{4-[3-(4-tert-butyl-thiazol-2-yl)-ureido]-phenyl}-piperazine-1-carboxylic acid [4-(2-hydroxy-ethoxy)-2-trifluoromethyl-phenyl]-amide]
16 | ≥ 50% | 144 to 146 °C | COc1ccc(C)cc1NC(=O)Nc1ccc(N2CCN(C(=O)Nc3ncccc3C)CC2)c(C)c1 [Example 313, 4-{4-[3-(2-methoxy-5-methyl-phenyl)-ureido]-2-methyl-phenyl}-piperazine-1-carboxylic acid (3-methyl-pyridin-2-yl)-amide]
17 | ≥ 50% | 181 to 183 °C | COc1ccc(F)cc1NC(=O)Nc1ccc(N2CCN(C(=O)Nc3c(F)cccc3C(F)(F)F)CC2)cc1 [Example 100, 4-{4-[3-(5-fluoro-2-methoxy-phenyl)-ureido]-phenyl}-piperazine-1-carboxylic acid (2-fluoro-6-trifluoromethyl-phenyl)-amide]
18 | ≥ 50% | 230 to 232 °C | COc1ccc(Cl)cc1NC(=O)Nc1ccc(N2CCN(C(=O)Nc3c(F)cccc3F)CC2)cc1 [Example 77, 4-{4-[3-(5-chloro-2-methoxy-phenyl)-ureido]-phenyl}-piperazine-1-carboxylic acid (2,6-difluoro-phenyl)-amide]
19 | ≥ 50% | 206 to 208 °C | CCOc1ccc(C)cc1NC(=O)Nc1ccc(N2CCN(C(=O)Nc3ncccc3C)CC2)cc1 [Example 311, 4-{4-[3-(2-ethoxy-5-methyl-phenyl)-ureido]-phenyl}-piperazine-1-carboxylic acid (3-methyl-pyridin-2-yl)-amide]
20 | ≥ 50% | 210 to 221 °C | COc1ccc(C)cc1NC(=O)Nc1ccc(N2CCN(C(=O)Nc3c(Cl)cccc3Cl)CC2)cc1 [Example 65, 4-{4-[3-(2-methoxy-5-methyl-phenyl)-ureido]-phenyl}-piperazine-1-carboxylic acid (2,6-dichloro-phenyl)-amide]
21 | ≥ 50% | 226 to 228 °C | COc1ccc(C)cc1NC(=O)Nc1ccc(N2CCN(C(=O)Nc3ccc(N)cc3Cl)CC2)cc1 [Example 168, 4-{4-[3-(2-methoxy-5-methyl-phenyl)-ureido]-phenyl}-piperazine-1-carboxylic acid (4-amino-2-chloro-phenyl)-amide]
